The source of these data is patent US10815230B2, “Casein kinase 1 delta inhibitor” (ELECTROPHORETICS LIMITED, priority 2015, dated 2020).

The test system of experiment [1] is TMHT (Thy-1 Mutated Human Tau) mouse. Description: In-vivo efficacy, Morris Water Maze in tau transgenic mice. Conditions: 30 mg/kg orally for 8 weeks. The source says:
Various compounds of different classes (among them also antibody treatments) were positively tested for their efficacy in the TMHT model. Published examples are the γ-secretase modulator CHF5074 (Lanzilotta A, et al. The γ-secretase modulator CHF5074 reduces the accumulation of native hyperphosphoxylated tau in a transgenic mouse model of Alzheimer's disease. J Mol Neurosci. 45(1):22--33 (2010)), sodium selenate (Corcoran N M et al. Sodium selenate specifically activates PP2A phosphatase, dephosphorylates tau and reverses memory deficits in an Alzheimer's disease model. J Clin Neurosci. 17(8):1025-33 (2010)) and grape-seed polyphenol extract (Wang J et al. Grape derived polyphenols attenuate tau neuropathology in a mouse model of Alzheimer's disease. […] The effects of the compounds on learning in the Morris Mater Maze (MWM) were evaluated. Blood (plasma) and brain samples were collected after sacrification. Samples collected at sacrifice were plasma, left cortex, left hippocampus, right cortex, right hippocampus, remainder of left brain hemisphere, remainder of right brain hemisphere. In total 48 animals were used and allocated to 4 treatment groups. The start position of the mouse and the position of the platform (FIG. 1) in the different trials of the MWM were as indicated in Table 9: […] A descriptive statistical analysis was performed on all evaluated parameters. All data were represented as mean ±standard error of mean (SEM). MWM learning curve data of three trials per day were averaged. Over a period of 4 days, the ability to find a hidden platform using visual cues was measured performing 3 trials a day. By comparison of the learning curves, the cognitive abilities of the different treatment groups and possible drug effects were evaluated.

Experiment [2] addresses CK1d (casein kinase 1 delta) (Homo sapiens, UniProt P48730). Nature of the experiment: Kinase selectivity, % remaining activity and IC50. Format: biochemical. Conditions: CK1d; 10 μM compound, 10 μM ATP, duplicate; read-out: % of remaining activity (relative to DMSO). Summed up:
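Percent remaining activity relative to DMSO was measured in duplicate with compound at 10 μM and 10 μM ATP. IC50 values for CK1δ were then determined, also at 10 μM ATP.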

The target of experiment [3] is YES/YES1 (Homo sapiens, UniProt P07947). Nature of the experiment: Kinase selectivity, % remaining activity. Conditions: 10 μM compound, 10 μM ATP, duplicate, read-out: % of remaining activity (relative to DMSO). Format: biochemical. The method, boiled down: (§1)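 First-tier selectivity panel: a single 10 μM concentration tested twice, ATP held at 10 μM, data reported as residual activity relative to DMSO.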

The target of experiment [4] is RIPK2 (Homo sapiens, UniProt O43353). Description: Kinase selectivity, % remaining activity. In kind it is biochemical. Conditions: 10 μM compound, 10 μM ATP, duplicate, read-out: % of remaining activity (relative to DMSO). The method, boiled down:
as §1

Experiment [5] has as its target KDR/VEGFR2 (Homo sapiens, UniProt P35968). Description: Kinase selectivity, % remaining activity. Format: biochemical. Conditions: 10 μM compound, 10 μM ATP, duplicate, read-out: % of remaining activity (relative to DMSO). The method, boiled down:
as §1

Experiment [6] concerns the target PKA (Homo sapiens, UniProt P17612). Description: Kinase selectivity, % remaining activity. The note with it: 10 μM compound, 10 μM ATP, duplicate, read-out: % of remaining activity (relative to DMSO). Format: biochemical. The method, boiled down: as §1
For experiment [7], the target named is CK1e (Homo sapiens, UniProt P49674). Nature of the experiment: Kinase selectivity, % remaining activity. Format: biochemical. The note with it: 10 μM compound, 10 μM ATP, duplicate, read-out: % of remaining activity (relative to DMSO). Summed up: as §1
Chain of CK1e (P49674 whole entry): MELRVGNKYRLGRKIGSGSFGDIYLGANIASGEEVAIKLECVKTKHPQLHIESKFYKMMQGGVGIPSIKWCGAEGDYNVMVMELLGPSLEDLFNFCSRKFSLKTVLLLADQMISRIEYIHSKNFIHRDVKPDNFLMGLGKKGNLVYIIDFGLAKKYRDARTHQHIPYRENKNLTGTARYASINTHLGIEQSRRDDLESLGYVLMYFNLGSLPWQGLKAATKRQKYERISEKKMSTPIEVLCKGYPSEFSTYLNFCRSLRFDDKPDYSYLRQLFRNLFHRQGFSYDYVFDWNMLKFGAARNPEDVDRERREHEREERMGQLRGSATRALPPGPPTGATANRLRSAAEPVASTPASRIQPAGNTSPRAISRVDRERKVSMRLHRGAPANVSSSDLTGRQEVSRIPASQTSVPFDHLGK
For experiment [8], the target named is CK1g1 (Homo sapiens, UniProt Q9HCP0). Description: Kinase selectivity, % remaining activity. Format: biochemical. The note with it: 10 μM compound, 10 μM ATP, duplicate, read-out: % of remaining activity (relative to DMSO). The method, boiled down:
as §1

Experiment [9] addresses LCK (Homo sapiens, UniProt P06239). Description: Kinase selectivity, % remaining activity. Format: biochemical. The note with it: 10 μM compound, 10 μM ATP, duplicate, read-out: % of remaining activity (relative to DMSO). The method, boiled down: as §1
Experiment [10] addresses EGFR (Homo sapiens, UniProt P00533). Description: Kinase selectivity, % remaining activity. Format: biochemical. Conditions: 10 μM compound, 10 μM ATP, duplicate, read-out: % of remaining activity (relative to DMSO). Summed up:
as §1

Experiment [11] deals with CK1g2 (Homo sapiens, UniProt P78368). Nature of the experiment: Kinase selectivity, % remaining activity. Format: biochemical. The note with it: 10 μM compound, 10 μM ATP, duplicate, read-out: % of remaining activity (relative to DMSO). Summed up:
as §1

The target of experiment [12] is PKCb2 (Homo sapiens, UniProt P05771). Nature of the experiment: Kinase selectivity, % remaining activity. Format: biochemical. The note with it: 10 μM compound, 10 μM ATP, duplicate, read-out: % of remaining activity (relative to DMSO). Summed up: as §1
Experiment [13] concerns the target JNK2 (Homo sapiens, UniProt P45984). Description: Kinase selectivity, % remaining activity. Format: biochemical. The note with it: 10 μM compound, 10 μM ATP, duplicate, read-out: % of remaining activity (relative to DMSO). The method, boiled down:
as §1

Experiment [14] addresses c-Src (Homo sapiens, UniProt P12931). Nature of the experiment: Kinase selectivity, % remaining activity. In kind it is biochemical. The note with it: 10 μM compound, 10 μM ATP, duplicate, read-out: % of remaining activity (relative to DMSO). The method, boiled down: as §1
Experiment [15] deals with T1, PDK1/PDPK1 (Homo sapiens, UniProt O15530).
T1 sequence (O15530 1-556): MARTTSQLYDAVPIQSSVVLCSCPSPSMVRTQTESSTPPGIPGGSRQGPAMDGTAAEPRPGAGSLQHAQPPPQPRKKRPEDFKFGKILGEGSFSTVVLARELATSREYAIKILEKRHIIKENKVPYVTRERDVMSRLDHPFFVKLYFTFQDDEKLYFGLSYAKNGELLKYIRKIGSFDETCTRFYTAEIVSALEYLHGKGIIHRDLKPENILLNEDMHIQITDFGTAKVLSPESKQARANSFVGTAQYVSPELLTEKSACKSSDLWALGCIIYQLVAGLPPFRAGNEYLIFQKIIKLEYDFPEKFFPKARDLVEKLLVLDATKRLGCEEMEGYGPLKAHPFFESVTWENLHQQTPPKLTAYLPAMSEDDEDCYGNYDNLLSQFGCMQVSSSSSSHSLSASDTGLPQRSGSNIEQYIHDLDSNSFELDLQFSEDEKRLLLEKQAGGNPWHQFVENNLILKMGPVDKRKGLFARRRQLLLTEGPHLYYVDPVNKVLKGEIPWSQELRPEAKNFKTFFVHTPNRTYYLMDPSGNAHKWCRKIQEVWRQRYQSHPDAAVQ
Nature of the experiment: Kinase selectivity, % remaining activity. Format: biochemical. Conditions: 10 μM compound, 10 μM ATP, duplicate, read-out: % of remaining activity (relative to DMSO). The method, boiled down:
as §1

Experiment [16] addresses EPHA2 (Homo sapiens, UniProt P29317). Description: Kinase selectivity, % remaining activity. In kind it is biochemical. The note with it: 10 μM compound, 10 μM ATP, duplicate, read-out: % of remaining activity (relative to DMSO). Summed up: as §1
Experiment [17] addresses CK1a1 (Homo sapiens, UniProt P48729). Nature of the experiment: Kinase selectivity, % remaining activity. The note with it: read-out: % of remaining activity (relative to DMSO), CK1a1; 10 μM compound, 10 μM ATP, duplicate. Format: biochemical. On the procedure:
Compounds were tested in single dose duplicate mode at a concentration of 10 μM (in DMSO) and reactions were carried out at 10 μM ATP, Table 3 reports the % of remaining activity (relative to DMSO).

Chain of CK1d (casein kinase 1 delta) (P48730 whole entry): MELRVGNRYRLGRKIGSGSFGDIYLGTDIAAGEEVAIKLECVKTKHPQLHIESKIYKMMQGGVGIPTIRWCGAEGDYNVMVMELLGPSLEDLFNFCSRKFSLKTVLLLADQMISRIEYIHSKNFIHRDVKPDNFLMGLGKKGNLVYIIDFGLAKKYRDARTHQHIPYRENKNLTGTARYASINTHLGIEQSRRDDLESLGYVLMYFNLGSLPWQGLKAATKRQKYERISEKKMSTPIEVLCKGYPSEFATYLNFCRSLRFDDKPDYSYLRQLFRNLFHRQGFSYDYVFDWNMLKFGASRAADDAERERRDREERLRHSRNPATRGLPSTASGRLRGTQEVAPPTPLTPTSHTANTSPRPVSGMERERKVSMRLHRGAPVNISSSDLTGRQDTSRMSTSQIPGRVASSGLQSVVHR
Chain of KDR/VEGFR2 (P35968 20-1356): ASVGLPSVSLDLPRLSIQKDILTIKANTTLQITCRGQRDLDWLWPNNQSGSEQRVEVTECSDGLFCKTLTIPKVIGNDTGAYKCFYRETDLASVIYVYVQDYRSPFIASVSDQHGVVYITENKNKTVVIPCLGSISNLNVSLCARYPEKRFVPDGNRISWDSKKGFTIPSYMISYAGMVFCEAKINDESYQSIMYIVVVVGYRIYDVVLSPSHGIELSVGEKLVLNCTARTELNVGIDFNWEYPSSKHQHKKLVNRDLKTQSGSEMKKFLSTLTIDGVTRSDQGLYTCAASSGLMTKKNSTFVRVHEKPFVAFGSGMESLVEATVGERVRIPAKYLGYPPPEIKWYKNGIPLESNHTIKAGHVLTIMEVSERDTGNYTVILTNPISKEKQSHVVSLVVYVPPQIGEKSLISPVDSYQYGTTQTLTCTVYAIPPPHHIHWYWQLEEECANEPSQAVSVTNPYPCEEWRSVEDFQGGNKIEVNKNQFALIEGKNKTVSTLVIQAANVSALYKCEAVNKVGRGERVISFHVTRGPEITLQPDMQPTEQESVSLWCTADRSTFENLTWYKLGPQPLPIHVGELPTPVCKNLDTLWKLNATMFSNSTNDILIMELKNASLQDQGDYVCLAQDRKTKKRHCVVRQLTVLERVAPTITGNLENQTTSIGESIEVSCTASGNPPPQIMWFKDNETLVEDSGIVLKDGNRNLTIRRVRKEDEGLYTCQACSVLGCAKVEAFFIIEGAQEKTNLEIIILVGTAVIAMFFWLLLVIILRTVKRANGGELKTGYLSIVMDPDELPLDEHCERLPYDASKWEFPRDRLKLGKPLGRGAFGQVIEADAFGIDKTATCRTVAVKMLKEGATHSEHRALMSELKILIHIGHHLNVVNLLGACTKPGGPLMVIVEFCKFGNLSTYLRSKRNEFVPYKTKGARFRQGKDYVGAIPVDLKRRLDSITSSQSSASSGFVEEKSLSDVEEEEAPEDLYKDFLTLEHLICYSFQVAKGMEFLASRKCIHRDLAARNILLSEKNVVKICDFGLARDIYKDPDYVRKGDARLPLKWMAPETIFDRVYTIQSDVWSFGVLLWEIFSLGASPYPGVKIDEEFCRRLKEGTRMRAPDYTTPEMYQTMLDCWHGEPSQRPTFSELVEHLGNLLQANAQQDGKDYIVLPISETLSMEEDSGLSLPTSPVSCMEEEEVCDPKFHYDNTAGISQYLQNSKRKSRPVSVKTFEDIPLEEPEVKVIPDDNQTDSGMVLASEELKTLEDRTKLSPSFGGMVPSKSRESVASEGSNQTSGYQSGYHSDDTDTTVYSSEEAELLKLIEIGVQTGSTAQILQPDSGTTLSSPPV
Chain of EPHA2 (P29317 24-976): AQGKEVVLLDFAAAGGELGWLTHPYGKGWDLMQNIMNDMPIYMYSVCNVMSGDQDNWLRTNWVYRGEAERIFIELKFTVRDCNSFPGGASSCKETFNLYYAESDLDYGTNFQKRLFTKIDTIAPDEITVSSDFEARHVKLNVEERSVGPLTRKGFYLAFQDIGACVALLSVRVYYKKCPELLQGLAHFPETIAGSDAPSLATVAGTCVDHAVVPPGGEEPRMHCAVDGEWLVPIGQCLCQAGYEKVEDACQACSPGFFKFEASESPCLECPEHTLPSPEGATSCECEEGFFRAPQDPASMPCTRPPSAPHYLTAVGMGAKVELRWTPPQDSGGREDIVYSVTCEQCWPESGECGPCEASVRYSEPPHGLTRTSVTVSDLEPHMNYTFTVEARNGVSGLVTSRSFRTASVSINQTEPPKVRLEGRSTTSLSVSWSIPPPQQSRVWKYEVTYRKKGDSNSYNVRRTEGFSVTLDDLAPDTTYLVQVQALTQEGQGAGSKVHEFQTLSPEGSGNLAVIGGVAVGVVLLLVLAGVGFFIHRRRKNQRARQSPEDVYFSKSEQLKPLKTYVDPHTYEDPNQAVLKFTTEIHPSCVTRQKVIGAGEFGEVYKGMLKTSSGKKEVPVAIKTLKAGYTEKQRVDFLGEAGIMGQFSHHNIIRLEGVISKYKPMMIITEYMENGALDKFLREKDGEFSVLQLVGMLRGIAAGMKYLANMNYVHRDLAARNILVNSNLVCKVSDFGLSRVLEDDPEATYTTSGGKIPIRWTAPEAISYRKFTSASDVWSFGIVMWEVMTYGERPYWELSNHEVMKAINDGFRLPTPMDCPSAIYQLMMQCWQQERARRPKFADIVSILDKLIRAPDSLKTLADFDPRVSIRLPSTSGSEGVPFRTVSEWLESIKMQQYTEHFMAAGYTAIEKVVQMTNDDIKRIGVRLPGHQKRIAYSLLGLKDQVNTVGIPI
Chain of c-Src (P12931 whole entry, species assumed): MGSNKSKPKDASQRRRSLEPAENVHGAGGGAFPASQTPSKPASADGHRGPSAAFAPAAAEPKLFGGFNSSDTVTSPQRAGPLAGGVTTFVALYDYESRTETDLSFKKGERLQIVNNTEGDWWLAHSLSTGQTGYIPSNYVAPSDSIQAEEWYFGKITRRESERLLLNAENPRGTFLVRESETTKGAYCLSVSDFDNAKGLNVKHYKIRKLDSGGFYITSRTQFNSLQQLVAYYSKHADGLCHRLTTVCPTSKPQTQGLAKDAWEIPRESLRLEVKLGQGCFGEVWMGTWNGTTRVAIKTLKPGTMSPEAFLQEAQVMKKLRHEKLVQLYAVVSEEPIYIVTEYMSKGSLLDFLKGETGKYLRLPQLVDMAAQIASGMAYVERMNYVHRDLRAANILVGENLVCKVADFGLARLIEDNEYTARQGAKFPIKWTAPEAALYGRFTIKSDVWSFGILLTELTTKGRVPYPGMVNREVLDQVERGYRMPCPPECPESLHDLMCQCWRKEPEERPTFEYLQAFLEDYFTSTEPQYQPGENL
Chain of CK1a1 (P48729 whole entry): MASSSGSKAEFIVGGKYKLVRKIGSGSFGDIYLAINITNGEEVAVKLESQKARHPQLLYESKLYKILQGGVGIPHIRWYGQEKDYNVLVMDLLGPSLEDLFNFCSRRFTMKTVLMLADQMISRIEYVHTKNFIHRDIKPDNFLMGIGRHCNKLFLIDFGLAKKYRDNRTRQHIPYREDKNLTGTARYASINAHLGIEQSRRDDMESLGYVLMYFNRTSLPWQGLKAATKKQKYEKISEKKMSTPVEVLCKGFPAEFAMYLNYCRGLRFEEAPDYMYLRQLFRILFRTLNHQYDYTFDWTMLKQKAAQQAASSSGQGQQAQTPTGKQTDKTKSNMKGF
Chain of CK1g1 (Q9HCP0 whole entry): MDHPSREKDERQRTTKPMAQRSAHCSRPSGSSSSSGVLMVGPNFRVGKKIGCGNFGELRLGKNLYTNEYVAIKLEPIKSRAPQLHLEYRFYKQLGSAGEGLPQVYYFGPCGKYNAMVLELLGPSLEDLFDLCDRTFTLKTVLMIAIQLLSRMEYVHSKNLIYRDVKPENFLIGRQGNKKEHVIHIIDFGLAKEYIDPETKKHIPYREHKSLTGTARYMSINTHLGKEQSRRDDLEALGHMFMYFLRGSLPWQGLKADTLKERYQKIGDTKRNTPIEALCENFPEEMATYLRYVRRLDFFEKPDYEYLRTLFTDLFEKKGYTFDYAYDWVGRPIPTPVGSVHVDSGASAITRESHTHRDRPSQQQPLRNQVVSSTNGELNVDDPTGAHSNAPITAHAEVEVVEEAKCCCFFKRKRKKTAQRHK
Chain of CK1g2 (P78368 whole entry, species assumed): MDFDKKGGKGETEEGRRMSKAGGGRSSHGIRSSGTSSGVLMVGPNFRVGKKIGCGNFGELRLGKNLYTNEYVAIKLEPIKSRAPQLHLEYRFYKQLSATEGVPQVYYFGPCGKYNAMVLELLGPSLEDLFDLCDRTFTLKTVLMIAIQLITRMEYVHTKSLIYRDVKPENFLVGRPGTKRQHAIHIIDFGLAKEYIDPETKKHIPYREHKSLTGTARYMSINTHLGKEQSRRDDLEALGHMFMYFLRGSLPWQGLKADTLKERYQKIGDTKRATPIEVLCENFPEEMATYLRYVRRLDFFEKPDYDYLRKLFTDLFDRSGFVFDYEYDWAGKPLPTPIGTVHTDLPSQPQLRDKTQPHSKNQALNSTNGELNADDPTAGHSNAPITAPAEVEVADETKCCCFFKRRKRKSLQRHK

In the case of `Nc1ncnc2c1c(COc1cccc(Cl)c1)nn2C1CCOCC1` [PF4800567, 3-[(3-Chlorophenoxy)methyl]-1-(tetrahydro-2H-pyran-4-yl)-1H-pyrazolo[3,4-d]pyrimidin-4-amine], the “Escape latency (time to reach the target), Mean ± SEM, Day 1” value in experiment [1] (Day 1) stood at 51.1 ± 3.10 s. The “Path length to reach the target, Mean ± SEM, Day 1” value in experiment [1] (Day 1) worked out at 8.00 ± 0.54 meter. Also, the “Escape latency (time to reach the target), Mean ± SEM, Day 2” value in experiment [1] (Day 2) was 50.0 ± 3.49 s. For the same compound, the “Path length to reach the target, Mean ± SEM, Day 2” value in experiment [1] (Day 2) is 7.51 ± 0.56 meter. The “Escape latency (time to reach the target), Mean ± SEM, Day 3” value in experiment [1] (Day 3) stood at 43.6 ± 3.86 s. Further, the “Path length to reach the target, Mean ± SEM, Day 3” value in [1] (Day 3) is on record as 5.83 ± 0.61 meter. For the same compound, the “Escape latency (time to reach the target), Mean ± SEM, Day 4” value in experiment [1] (Day 4) is 44.0 ± 3.72 s. Also, the “Path length to reach the target, Mean ± SEM, Day 4” value in [1] (Day 4) is on record as 5.70 ± 0.58 meter. The remaining activity at 10 µM stood at 8.41% in [2]; 15.5% in experiment [3]; 47.6% in experiment [4]; 83.1% in experiment [5]; 83% in [6]; 3% in experiment [7]. For the same compound, the remaining activity at 10 µM in experiment [8] amounted to 85.1%; in experiment [9] it was 19.9%; in experiment [10], 68.8%; in [11] it was 86%; in [12] it was 88.5%; in [13], 96.5%. The remaining activity at 10 µM in experiment [14] came to 44%; in experiment [15], 103%; in [16] it was 39%; in experiment [17], 29.3%.

The term remaining activity denotes the signal under treatment as a percentage of the control signal.
